Measured values from the supplement of paper PMC10307832.

Experiments:
Experiment in all cases: relative viability (nuclei count vs DMSO), 5 days (fraction); higher = more cells survive
[1] = compound: CCC1=CN=CN=C1N2CCN(CC2)CC3=NC4=C(N3)C=C(C=C4)C(F)(F)F + CC(C)C[C@H](NC(=O)[C@H](Cc1ccccc1)NC(=O)c1cnccn1)B(O)O [Bortezomib] (partner 0.002 µM)
In short: (§1)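 Cells from lung cancer lines were seeded into 1536-well plates and, one day later, dosed by pin tool. Treatments were either a single drug or a fixed dose of an anchor drug with five library-drug doses (not always all listed) in √10 steps. After 5 days, nuclei were stained in a one-step fixation (final 0.05% Triton X-100, 1% formaldehyde, 1 ug/ml Hoechst) and counted on 4× images, and relative viability is the treated-to-vehicle nuclei ratio, as the median of duplicate plates.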

[2] = compound: CCC1=CN=CN=C1N2CCN(CC2)CC3=NC4=C(N3)C=C(C=C4)C(F)(F)F + CC(=O)c1c(C)c2cnc(Nc3ccc(N4CCNCC4)cn3)nc2n(C2CCCC2)c1=O [Palbociclib] (partner 0.5 µM)
In short: as §1

Mirin + OSI-027 = compound: N=C1NC(=O)/C(=C/c2ccc(O)cc2)S1 [Mirin] + COc1cccc2cc(-c3nc([C@H]4CC[C@H](C(=O)O)CC4)n4ncnc(N)c34)[nH]c12 [OSI-027] (partner 0.5 µM)
In short: as §1

[3] = compound: CCn1c(-c2nonc2N)nc2cnc(Oc3cccc(NC(=O)c4ccc(OCCN5CCOCC5)cc4)c3)cc21 + C[C@]1(O)C[C@@H](c2nc(-c3ccc4ccc(-c5ccccc5)nc4c3)c3c(N)nccn32)C1 [Linsitinib] (partner 1 µM)
In short: as §1

Cell Line | relative viability ([1]; first compound 0.04 µM) | relative viability ([1]; first compound 0.1265 µM) | relative viability ([1]; first compound 0.4 µM) | relative viability ([1]; first compound 1.265 µM) | relative viability ([1]; first compound 4 µM) | relative viability ([2]; first compound 0.04 µM) | relative viability ([2]; first compound 0.1265 µM) | relative viability ([2]; first compound 0.4 µM) | relative viability ([2]; first compound 1.265 µM) | relative viability ([2]; first compound 4 µM) | relative viability (Mirin + OSI-027; first compound 0.25 µM) | relative viability (Mirin + OSI-027; first compound 0.7906 µM) | relative viability (Mirin + OSI-027; first compound 7.906 µM) | relative viability (Mirin + OSI-027; first compound 25 µM) | relative viability ([3]; first compound 0.04 µM) | relative viability ([3]; first compound 0.1265 µM) | relative viability ([3]; first compound 0.4 µM) | relative viability ([3]; first compound 1.265 µM) | relative viability ([3]; first compound 4 µM) | relative viability (Mirin + OSI-027; first compound 2.5 µM)
201T | 1.09 | 1.06 | 1.04 | 1.09 | 1.14 | 0.331 | 0.348 | 0.367 | 0.375 | 0.344 | 0.75 | 0.832 | 0.629 | 0.64 | 1.01 | 1.05 | 1.03 | 1.03 | 1.1 | –
A549 | – | – | – | – | – | – | – | – | – | – | – | – | – | – | 0.726 | 0.662 | 0.733 | 0.178 | 0.319 | –
A-427 | 0.926 | 0.896 | 0.936 | 0.878 | 0.989 | 0.451 | 0.489 | 0.499 | 0.479 | 0.475 | 0.484 | – | 0.272 | 0.411 | 1.2 | 1.16 | 1.15 | 1.06 | 1.06 | 0.525
ABC-1 | 0.315 | 0.314 | 0.312 | 0.402 | 0.37 | – | – | 0.543 | 0.628 | 0.547 | 0.442 | 0.346 | 0.467 | 0.225 | 1.15 | 0.906 | 0.687 | 0.574 | 0.5 | 0.484
BEN | 0.646 | 0.656 | 0.708 | 0.621 | 0.49 | 0.454 | 0.487 | 0.469 | 0.437 | 0.464 | 0.288 | 0.306 | 0.286 | 0.192 | 0.931 | 0.935 | 0.799 | 0.311 | 0.313 | 0.273
CAL-12T | – | 0.997 | 0.888 | 1.06 | 1.07 | 0.558 | 0.409 | 0.601 | 0.288 | 0.556 | 0.797 | – | 0.695 | 0.525 | 1.12 | 1.01 | 0.768 | 0.704 | 0.731 | 0.681
COR-L23 | 0.988 | 0.91 | 0.964 | 0.956 | 0.957 | 0.234 | 0.298 | 0.259 | 0.254 | 0.282 | 0.803 | 0.816 | 0.69 | 0.728 | 1 | 0.785 | 0.521 | 0.172 | 0.148 | 0.761
COR-L 105 | 0.861 | 0.913 | 0.737 | 0.475 | 0.836 | 0.416 | 0.444 | 0.371 | 0.363 | 0.428 | 0.7 | 0.684 | 0.975 | 0.434 | 0.774 | 0.766 | 0.862 | 0.451 | 0.391 | 0.829
Calu-6 | 0.969 | 0.924 | 0.871 | 0.884 | 0.829 | – | – | – | – | – | – | – | – | – | 0.964 | 0.94 | 0.616 | 0.524 | 0.536 | –
ChaGo-K-1 | – | 0.97 | 0.964 | 1.09 | 0.985 | 0.976 | 0.946 | 0.929 | 0.907 | 0.881 | 0.582 | 0.396 | 0.492 | 0.432 | – | – | – | – | – | 0.55
EBC-1 | 0.557 | 0.528 | 0.6 | 0.458 | 0.486 | – | – | – | – | – | – | – | – | – | 0.852 | 1.09 | 0.78 | 0.79 | 0.876 | –
EKVX | 0.994 | 0.945 | 0.983 | 0.952 | 1.13 | 0.405 | 0.387 | 0.325 | 0.337 | 0.377 | 0.691 | 0.672 | 0.591 | 0.67 | 1.42 | 1.02 | 1.08 | 0.813 | 0.976 | 0.761
EMC-BAC-2 | 1.07 | 1.01 | 1.05 | 0.917 | 1.15 | 0.483 | 0.532 | 0.533 | 0.463 | 0.554 | 0.389 | 0.378 | 0.307 | 0.312 | 1.03 | 0.839 | 0.814 | 0.834 | 0.877 | 0.337
EPLC-272H | 0.696 | 0.885 | 0.829 | 1.43 | 1.08 | 0.338 | 0.302 | 0.324 | 0.318 | 0.327 | 0.339 | – | 0.213 | 0.224 | 1.35 | 1.12 | 1.14 | 1.1 | 1.18 | 0.241
H3255 | 0.671 | 0.849 | 0.739 | 0.816 | 0.756 | 0.313 | 0.308 | 0.325 | 0.292 | 0.343 | 0.558 | 0.536 | 0.475 | 0.616 | 1.2 | 0.952 | 0.99 | 0.62 | 0.768 | 0.636
HARA | 1.12 | 1.05 | 1.06 | 1.01 | 0.964 | 0.281 | 0.314 | 0.283 | – | 0.295 | 0.491 | – | 0.356 | 0.437 | 1.04 | 0.733 | 1 | 0.634 | 0.698 | 0.56
HCC-15 | 0.931 | 0.921 | 0.953 | 1.08 | 1.05 | 0.717 | 0.723 | 0.646 | 0.612 | 0.682 | 0.81 | 0.557 | 0.585 | 0.466 | 1.15 | 0.88 | 0.901 | 0.825 | 0.883 | 0.614
HCC-44 | 0.853 | 0.798 | 0.854 | 0.89 | 0.866 | 0.965 | 0.956 | 0.991 | 0.937 | 0.859 | 0.441 | 0.491 | 0.428 | 0.485 | 0.671 | 0.709 | 0.684 | 0.538 | 0.509 | 0.483
